pIC50: −log10 of the molar value.
Key:
His-tagged Parp-1 = biological target: T1, His-tagged Parp-1 (Homo sapiens, UniProt P09874); test: PARP-1 autoparsylation assay (HTRF); assay type: biochemical; details: read-out: IC50 PARP1
T1 construct: purchased Enzo Life Sciences GmbH, Lörrach, Germany
Procedure: Biochemical Activity Testing of PARP-1: Autoparsylation Assay
(§1) The autoparsylation assay was run in two steps: the enzymatic reaction in which His-tagged Parp-1 transferred biotinylated ADP-ribose/ADP-ribose to itself from biotinylated NAD/NAD as co-substrate and the detection reaction where a time resolved FRET between cryptate labelled anti-His antibody bound to the His tag of the enzyme and Xlent® labelled-streptavidin bound the biotin-parsylation residue was analysed. The autoparsylation activity was detectable directly via the increase in HTRF signal.
The autoparsylation assay was performed as 384-well HTRF® (Cisbio, Codolet, France) assay format in Greiner low volume nb 384-well microtiter plates. 35 nM His-tagged Parp-1 (human, recombinant, Enzo Life Sciences GmbH, Lörrach, Germany) and a mixture of 125 nM bio-NAD (Biolog, Life science Inst., Bremen, Germany) and 800 nM NAD as co-substrate were incubated in a total volume of 6 μl (100 mM Tris/HCl, 4 mM Mg-chloride, 0.01% IGEPAL® CA630, 1 mM DTT, 0.5% DMSO, pH 8, 13 ng/μl activated DNA (BPS Bioscience, San Diego, US)) in the absence or presence of the test compound (10 dilution concentrations) for 150 min at 23° C. The reaction was stopped by the addition of 4 μl of the Stop/detection solution (70 nM SA-Xlent® (Cisbio, Codolet, France), 2.5 nM Anti-His-K® (Eu-labelled anti-His, Cisbio, Codolet, France) in 50 mM HEPES, 400 mM KF, 0.1% BSA, 20 mM EDTA, pH 7.0). After 1 h incubation at room temperature the HTRF was measured with an Envision multimode reader (Perkin Elmer LAS Germany GmbH) at excitation wavelength 340 nm (laser mode) and emission wavelengths 615 nm and 665 nm. The ratio of the emission signals was determined. The full value used was the inhibitor-free reaction. The pharmacological zero value used was Olaparib (LClabs, Woburn, US) in a final concentration of 1 μM. The inhibitory values (IC50) were determined using either the program Symyx Assay Explorer® or Condosseo® from GeneData.

[1] = biological target: T2, GST-tagged Tankyrase-1 (1023-1327 aa) (Homo sapiens, UniProt O95271); test: Tankyrase 1 autoparsylation assay (HTRF enzyme assay); assay type: biochemical
T2 construct: GST-tagged Tankyrase-1 (1023-1327 aa)
Procedure: as §1, with “GST-tagged Tankyrase-1, resp Tankyrase-2” for “His-tagged Parp-1”, “ADP-ribose” for “ADP-ribose/ADP-ribose”, “NAD” for “NAD/NAD”, “anti-GST” for “anti-His antibody”, “GST” for “His”
The autoparsylation assay was performed as 384-well HTRF® (Cisbio, Codolet, France) assay format in Greiner low volume nb 384-well microtiter plates and was used for high throughput screen. 250 nM GST-tagged Tankyrase-1 (1023-1327 aa), respectively about 250 nM GST-tagged Tankyrase-2 (873-1166 aa) and 5 μM bio-NAD (Biolog, Life science Inst., Bremen, Germany) as co-substrate were incubated in a total volume of 5 μl (50 mM HEPES, 4 mM Mg-chloride, 0.05% Pluronic F-68, 1.4 mM DTT, 0.5% DMSO, pH 7.7) in the absence or presence of the test compound (10 dilution concentrations) for 90 min at 30° C. The reaction was stopped by the addition of 1 μl 50 mM EDTA solution. 2 μl of the detection solution (1.6 μM SA-Xlent® (Cisbio, Codolet, France), 7.4 nM Anti-GST-K® (Eu-labelled anti-GST, Cisbio, Codolet, France) in 50 mM HEPES, 800 mM KF, 0.1% BSA, 20 mM EDTA, 0.1% CHAPS, pH 7.0) were added. After 1 h incubation at room temperature the HTRF was measured with an Envision multimode reader (Perkin Elmer LAS Germany GmbH) at excitation wavelength 340 nm (laser mode) and emission wavelengths 615 nm and 665 nm. The ratio of the emission signals was determined. The full value used was the inhibitor-free reaction. The pharmacological zero value used was XAV-939 (Tocris) in a final concentration of 5 μM. The inhibitory values (IC50) were determined using either the program Symyx Assay Explorer® or Condosseo® from GeneData.

T2 sequence (O95271 1023-1327): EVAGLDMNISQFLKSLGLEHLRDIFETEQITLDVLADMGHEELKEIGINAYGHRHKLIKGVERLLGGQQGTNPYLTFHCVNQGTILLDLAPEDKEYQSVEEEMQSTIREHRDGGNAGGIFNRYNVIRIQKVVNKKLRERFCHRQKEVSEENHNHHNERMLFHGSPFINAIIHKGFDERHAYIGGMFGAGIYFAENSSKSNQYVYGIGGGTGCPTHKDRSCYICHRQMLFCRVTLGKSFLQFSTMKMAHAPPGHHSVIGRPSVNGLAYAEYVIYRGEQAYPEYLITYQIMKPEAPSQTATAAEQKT
T1 sequence (P09874 whole entry): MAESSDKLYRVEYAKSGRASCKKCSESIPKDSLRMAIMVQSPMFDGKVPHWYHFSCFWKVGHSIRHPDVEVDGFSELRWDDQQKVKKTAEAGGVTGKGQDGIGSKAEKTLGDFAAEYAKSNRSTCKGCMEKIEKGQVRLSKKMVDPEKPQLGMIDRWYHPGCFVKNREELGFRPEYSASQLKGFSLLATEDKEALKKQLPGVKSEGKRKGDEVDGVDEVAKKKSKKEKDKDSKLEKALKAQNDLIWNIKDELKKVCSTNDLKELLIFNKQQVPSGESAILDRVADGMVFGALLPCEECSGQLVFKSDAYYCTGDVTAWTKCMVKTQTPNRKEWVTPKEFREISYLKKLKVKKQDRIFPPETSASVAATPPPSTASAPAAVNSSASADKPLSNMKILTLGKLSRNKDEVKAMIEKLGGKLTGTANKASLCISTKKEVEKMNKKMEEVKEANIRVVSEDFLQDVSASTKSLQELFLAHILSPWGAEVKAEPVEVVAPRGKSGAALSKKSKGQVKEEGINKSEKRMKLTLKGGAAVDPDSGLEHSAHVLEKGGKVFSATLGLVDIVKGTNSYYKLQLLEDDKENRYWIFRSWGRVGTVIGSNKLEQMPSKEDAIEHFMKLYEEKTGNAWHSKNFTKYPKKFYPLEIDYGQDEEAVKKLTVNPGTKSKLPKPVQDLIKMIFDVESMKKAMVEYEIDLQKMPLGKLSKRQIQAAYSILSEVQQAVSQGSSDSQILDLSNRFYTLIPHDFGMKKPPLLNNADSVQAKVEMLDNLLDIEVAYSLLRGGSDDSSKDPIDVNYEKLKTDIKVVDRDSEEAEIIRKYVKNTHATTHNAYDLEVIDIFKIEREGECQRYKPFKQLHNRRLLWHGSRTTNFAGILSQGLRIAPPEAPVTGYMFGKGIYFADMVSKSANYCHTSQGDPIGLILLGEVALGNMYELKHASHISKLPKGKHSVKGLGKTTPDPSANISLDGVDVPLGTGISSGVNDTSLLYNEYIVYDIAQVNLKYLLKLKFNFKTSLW

Q: `COc1ccc(N2CCN(c3nc4c(c(=O)[nH]3)CCCC4)CC2)cc1` [Compound A3, 2-[4-(4-methoxy-phenyl)-piperazin-1-yl]-5,6,7,8-tetrahydro-3H-quinazolin-4-one] was tested. Which pIC50 (His-tagged Parp-1) did it give?
A: Its pIC50 is greater than 6.52.

Q: What about the pIC50 [1] of the same compound?
A: Its pIC50 is 5.52 to 6.52.

Q: How did the pIC50 (His-tagged Parp-1) turn out when `O=c1[nH]c(N2CCN(c3ccc(F)cc3)CC2)nc2c1CCCC2` [Compound A6, 2-[4-(4-Fluorophenyl)piperazin-1-yl]-5,6,7,8-tetrahydro-3H-quinazolin-4-one] was run?
A: Its pIC50 is 5.52 to 6.52.

Q: What about the pIC50 [1] of the same compound?
A: Its pIC50 is 5.52 to 6.52.

Q: `COc1cccc(N2CCN(c3nc4c(c(=O)[nH]3)CCCC4)CC2)c1` [Compound A7, 2-[4-(3-Methoxyphenyl)piperazin-1-yl]-5,6,7,8-tetrahydro-3H-quinazolin-4-one] was tested. Which pIC50 (His-tagged Parp-1) did it give?
A: Its pIC50 is 5.52 to 6.52.

Q: What about the pIC50 [1] of the same compound?
A: Its pIC50 is greater than 6.52.

Q: How did the pIC50 (His-tagged Parp-1) turn out when `O=c1[nH]c(N2CCN(c3ccccc3Cl)CC2)nc2c1CCCC2` [Compound A9, 2-[4-(2-Chlorophenyl)piperazin-1-yl]-5,6,7,8-tetrahydro-3H-quinazolin-4-one] was run?
A: The pIC50 was 5.52 to 6.52.

Q: And the pIC50 [1]?
A: The pIC50 was greater than 6.52.

Q: Which results are given for `COc1ccccc1N1CCN(c2nc3c(c(=O)[nH]2)CCCC3)CC1` [Compound A12, 2-[4-(2-Methoxyphenyl)piperazin-1-yl]-5,6,7,8-tetrahydro-3H-quinazolin-4-one]?
A: pIC50 (His-tagged Parp-1): 5.52 to 6.52; pIC50 [1]: > 6.52

Q: Which results are given for `N#Cc1ccccc1N1CCN(c2nc3c(c(=O)[nH]2)CCCC3)CC1` [Compound A33, 2-[4-(4-oxo-5,6,7,8-tetrahydro-3H-quinazolin-2-yl)piperazin-1-yl]benzonitrile]?
A: pIC50 (His-tagged Parp-1): 5.52 to 6.52; pIC50 [1]: > 6.52

Q: How did the pIC50 (His-tagged Parp-1) turn out when `COc1cc(F)ccc1N1CCN(c2nc3c(c(=O)[nH]2)CCCC3)CC1` [Compound A36, 2-[4-(4-fluoro-2-methoxy-phenyl)piperazin-1-yl]-5,6,7,8-tetrahydro-3H-quinazolin-4-one] was run?
A: Its pIC50 is 5.52 to 6.52.

Q: And the pIC50 [1]?
A: Its pIC50 is greater than 6.52.

— patent US9339503B2, “Tetrahydro-quinazolinone derivatives as TANK and PARP inhibitors” (MERCK PATENT GMBH, priority 2012, dated 2016)
